The record followed here is patent publication US6436921B1, “Carbapenem derivatives and a preparation method thereof” (Korea Institute of Science and Technology, priority 1997, dated 2002).

Converted amounts (≈) assume the structure as drawn.

The test system of one data set is Klebsiella oxytoca 1082E. As to the kind of experiment: Antibacterial activity test (agar dilution MIC). Type of data set: cell-based. The procedure: (§1) Gram-positive Streptococcus and Staphylococcus and Gram-negative Escherichia coli, Pseudomonas, Salmonella, Klebsiella and Enterobacter were selected for the test. After the cells were diluted and cultured in agar, the compounds of the present invention were treated to obtain the minimum inhibitory concentration in the units of μg/ml.
For orientation: Agar dilution tests growth on a series of plates holding different concentrations.

A further data set deals with Escherichia coli DC2. As to the kind of experiment: Antibacterial activity test (agar dilution MIC). The format is cell-based. The procedure:
as §1

The next data set has as its system Salmonella typhimurium. As to the kind of experiment: Antibacterial activity test (agar dilution MIC). Type of data set: cell-based. The procedure: as §1
The test system of data set [1] is Staphylococcus aureus 503. Kind of data set: Antibacterial activity test (agar dilution MIC). As to conditions: Staphylococcus aureus 503, agar. Type of data set: cell-based. The procedure: as §1
The test system of data set [2] is Pseudomonas aeruginosa 1771. As to the kind of experiment: Antibacterial activity test (agar dilution MIC). As to conditions: Pseudomonas aeruginosa 1771, agar. Type of data set: cell-based. The procedure: as §1
A further data set concerns Escherichia coli TEM. Kind of data set: Antibacterial activity test (agar dilution MIC). As to conditions: Escherichia coli TEM, agar. Type of data set: cell-based. The procedure:
as §1

Data set [3] relates to Staphylococcus aureus 285. Kind of data set: Antibacterial activity test (agar dilution MIC). Type of data set: cell-based. As to conditions: Staphylococcus aureus 285, agar. The procedure: as §1
The subject of the next data set is Escherichia coli 1507E. Kind of data set: Antibacterial activity test (agar dilution MIC). The format is cell-based. The procedure: as §1
Data set [4] relates to Pseudomonas aeruginosa 9027. Kind of data set: Antibacterial activity test (agar dilution MIC). As to conditions: Pseudomonas aeruginosa 9027, agar. Type of data set: cell-based. The procedure: as §1
Another data set deals with Enterobacter cloacae P99. Kind of data set: Antibacterial activity test (agar dilution MIC). Type of data set: cell-based. The procedure: as §1
Another data set deals with Escherichia coli DC0. Kind of data set: Antibacterial activity test (agar dilution MIC). The format is cell-based. The procedure: as §1
In data set [5] the test system is Escherichia coli 078. As to the kind of experiment: Antibacterial activity test (agar dilution MIC). The format is cell-based. The note with it: Escherichia coli 078, agar. The procedure:
as §1

The subject of data set [6] is Pseudomonas aeruginosa 1592E. Kind of data set: Antibacterial activity test (agar dilution MIC). The format is cell-based. The procedure: as §1
Data set [7] deals with Klebsiella aerogenes 1522E. Kind of data set: Antibacterial activity test (agar dilution MIC). Type of data set: cell-based. The procedure: as §1
Data set [8] has as its system Streptococcus pyogenes 77A. Kind of data set: Antibacterial activity test (agar dilution MIC). Type of data set: cell-based. The procedure:
as §1

The test system of data set [9] is Enterobacter cloacae 1321E. Kind of data set: Antibacterial activity test (agar dilution MIC). The format is cell-based. The procedure: as §1
Data set [10] has as its system Pseudomonas aeruginosa 1771M. Kind of data set: Antibacterial activity test (agar dilution MIC). The format is cell-based. The note with it: Pseudomonas aeruginosa 1771M, agar. The procedure: as §1
For data set [11], the system named is Streptococcus pyogenes 308A. Kind of data set: Antibacterial activity test (agar dilution MIC). The format is cell-based. The procedure:
as §1

The test system of data set [12] is Staphylococcus aureus SG511. Kind of data set: Antibacterial activity test (agar dilution MIC). Type of data set: cell-based. The procedure: as §1
In data set [13] the test system is Streptococcus faecium MD8b. As to the kind of experiment: Antibacterial activity test (agar dilution MIC). The format is cell-based. The procedure: as §1
The target of data set [14] is DHP-I (renal dehydropeptidase-I) (Homo sapiens, UniProt P16444). As to the kind of experiment: in vitro. As to conditions: renal enzyme DHP-I.
Chain of DHP-I (renal dehydropeptidase-I) (P16444 17-385): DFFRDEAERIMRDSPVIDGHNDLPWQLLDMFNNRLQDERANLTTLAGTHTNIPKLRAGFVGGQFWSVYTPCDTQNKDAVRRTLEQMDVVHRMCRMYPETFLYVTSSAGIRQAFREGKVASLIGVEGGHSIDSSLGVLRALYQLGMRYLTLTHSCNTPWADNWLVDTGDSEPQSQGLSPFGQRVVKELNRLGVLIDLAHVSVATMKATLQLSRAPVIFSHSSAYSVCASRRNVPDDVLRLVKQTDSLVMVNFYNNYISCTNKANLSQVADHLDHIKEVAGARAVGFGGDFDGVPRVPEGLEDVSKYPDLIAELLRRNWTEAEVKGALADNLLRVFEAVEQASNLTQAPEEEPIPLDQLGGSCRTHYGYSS
Data set [15] relates to Streptococcus pyrogenes A 77. As to the kind of experiment: PD50 test using mice. Type of data set: in vivo. Also on record: PD50: unit not given beside the values. The note with it: Streptococcus pyrogenes A 77. The text has this: (§2) This means that ⅓ of the amount of the compound 10 has the same effect as meropenem.
(§3) Streptococcus pyrogenes A 77 and Escherichia coli 078 were selected as gram-positive and gram-negative strains, respectively.

Data set [16] has as its system Escherichia coli 078. Kind of data set: PD50 test using mice. The format is in vivo. Also on record: PD50: unit not given beside the values. As to conditions: Escherichia coli 078.
Excerpt: as §2, §3

The nature of data set [17]: Bioavailability test, subcutaneous injection to mice. Type of data set: in vivo.

For `C[C@@H](O)[C@H]1C(=O)N2C(C(=O)O)=C(S[C@@H]3CN[C@H](C(=O)NCCS(=O)(=O)NCCO)C3)[C@H](C)[C@H]12` [Compound 13], the Minimum inhibitory concentration with Klebsiella oxytoca 1082E came to 0.049 µg/mL (≈ 0.0967 µM); with Escherichia coli DC2 it was 0.025 µg/mL (≈ 0.0493 µM); in the data set on Salmonella typhimurium it was 0.025 µg/mL (≈ 0.0493 µM); in data set [1], 0.098 µg/mL (≈ 0.193 µM); in data set [2], 1.563 µg/mL (≈ 3.09 µM); in the data set with Escherichia coli TEM, 0.013 µg/mL (≈ 0.0257 µM). Also, the Minimum inhibitory concentration was 0.195 µg/mL (≈ 0.385 µM) in data set [3]; 0.025 µg/mL (≈ 0.0493 µM) in the data set with Escherichia coli 1507E; 1.563 µg/mL (≈ 3.09 µM) in data set [4]; 0.049 µg/mL (≈ 0.0967 µM) in the data set with Enterobacter cloacae P99; 0.025 µg/mL (≈ 0.0493 µM) in the data set on Escherichia coli DC0; 0.013 µg/mL (≈ 0.0257 µM) in the data set with Escherichia coli 078 [5]. The Minimum inhibitory concentration in [6] turned out to be 1.563 µg/mL (≈ 3.09 µM); in data set [7], 0.025 µg/mL (≈ 0.0493 µM); in [8], 0.007 µg/mL (≈ 0.0138 µM); in data set [9], 0.013 µg/mL (≈ 0.0257 µM); in [10], 0.391 µg/mL (≈ 0.772 µM); in data set [11] it was 0.013 µg/mL (≈ 0.0257 µM). In addition, the values for the Minimum inhibitory concentration in [12] and in data set [13] were 0.195 µg/mL (≈ 0.385 µM) and 12.5 µg/mL (≈ 24.7 µM), respectively.

In the case of `C[C@@H](O)[C@H]1C(=O)N2C(C(=O)O)=C(S[C@@H]3CN[C@H](C(=O)NCCS(=O)(=O)N4CCCC4)C3)[C@H](C)[C@H]12` [Compound 15], the Minimum inhibitory concentration in the data set on Klebsiella oxytoca 1082E is 0.098 µg/mL (≈ 0.19 µM); with Escherichia coli DC2 it was 0.049 µg/mL (≈ 0.0948 µM); with Salmonella typhimurium, 0.049 µg/mL (≈ 0.0948 µM); in [1], 0.195 µg/mL (≈ 0.377 µM); in data set [2] it was 0.781 µg/mL (≈ 1.51 µM); with Escherichia coli TEM, 0.025 µg/mL (≈ 0.0484 µM). Also, the Minimum inhibitory concentration in data set [3] stood at 0.195 µg/mL (≈ 0.377 µM); with Escherichia coli 1507E, 0.025 µg/mL (≈ 0.0484 µM); in data set [4], 0.391 µg/mL (≈ 0.757 µM); in the data set on Enterobacter cloacae P99, 0.049 µg/mL (≈ 0.0948 µM); with Escherichia coli DC0, 0.025 µg/mL (≈ 0.0484 µM); in the data set with Escherichia coli 078 [5], 0.025 µg/mL (≈ 0.0484 µM). The Minimum inhibitory concentration is 0.391 µg/mL (≈ 0.757 µM) in [6]; 0.049 µg/mL (≈ 0.0948 µM) in data set [7]; 0.007 µg/mL (≈ 0.0135 µM) in [8]; 0.025 µg/mL (≈ 0.0484 µM) in [9]; 0.013 µg/mL (≈ 0.0252 µM) in data set [11]; 0.195 µg/mL (≈ 0.377 µM) in data set [12]. The same compound returned a Minimum inhibitory concentration in data set [13] of 12.5 µg/mL (≈ 24.2 µM).

A word on the half-life: it is the time in which the quantity being followed falls by half. In the case of `C[C@@H](O)[C@H]1C(=O)N2C(C(=O)O)=C(SCCN=CN)C[C@H]12` [imipenem, reference compound], in [14], the half-life is 30 min.

The Cmax is the maximum level reached in the sampled fluid or tissue. Usually Tmax stands for the time from dosing to the highest level. The term AUC denotes concentration integrated over time. For the compound `C[C@@H](O)[C@H]1C(=O)N2C(C(=O)O)=C(S[C@@H]3CN[C@H](C(=O)N(C)C)C3)[C@H](C)[C@H]12` [meropenem, reference compound], the PD50 in data set [15] is recorded as 7.16. Moreover, the PD50 with Escherichia coli 078 [16] is on record as 1.24. Besides, in [17], the Cmax was 7600 ± 550 ng/mL, the T1/2 worked out at 14.4 ± 13.2 min and the Tmax came to 12.6 ± 2.4 min. The compound also gave an AUC in [17] (mouse, in vivo, sc, AUC 0-2 hr) of 3290 ± 290 ng·h/mL.
